Assays:
HepG2 = test: cells; details: Homo sapiens, HepG2, 72 h
Description: Cytotoxicity against human HepG2 cells after 72 hrs by alamar blue assay

Cholinesterase [1] = biological target: Cholinesterase (Equus caballus, UniProt P81908)
Description: Inhibition of equine serum BChE using butyrylthiocholine iodide as substrate pretreated for 4.5 mins followed by substrate addition and measured after 2.5 mins by Ellman's method

Acetylcholinesterase [2] = biological target: Acetylcholinesterase (Electrophorus electricus, UniProt O42275)
Description: Inhibition of electric eel AChE using acetylthiocholine iodide as substrate pretreated for 4.5 mins followed by substrate addition and measured after 2.5 mins by Ellman's method

physchem = details: octanol/water
Description: Octanol/water partition co-efficient, log P of the compound by RP-HPLC analysis

Acetylcholinesterase [3] = biological target: Acetylcholinesterase (Homo sapiens, UniProt P22303); test: Inhibition of recombinant human AChE expressed in HEK293 cells using acetylthiocholine iodide as substrate pretreated for 4.5 mins followed by substrate addition and measured after 2.5 mins by Ellman's method
Acetylcholinesterase (Homo sapiens, UniProt P22303), sequence (P22303 whole entry): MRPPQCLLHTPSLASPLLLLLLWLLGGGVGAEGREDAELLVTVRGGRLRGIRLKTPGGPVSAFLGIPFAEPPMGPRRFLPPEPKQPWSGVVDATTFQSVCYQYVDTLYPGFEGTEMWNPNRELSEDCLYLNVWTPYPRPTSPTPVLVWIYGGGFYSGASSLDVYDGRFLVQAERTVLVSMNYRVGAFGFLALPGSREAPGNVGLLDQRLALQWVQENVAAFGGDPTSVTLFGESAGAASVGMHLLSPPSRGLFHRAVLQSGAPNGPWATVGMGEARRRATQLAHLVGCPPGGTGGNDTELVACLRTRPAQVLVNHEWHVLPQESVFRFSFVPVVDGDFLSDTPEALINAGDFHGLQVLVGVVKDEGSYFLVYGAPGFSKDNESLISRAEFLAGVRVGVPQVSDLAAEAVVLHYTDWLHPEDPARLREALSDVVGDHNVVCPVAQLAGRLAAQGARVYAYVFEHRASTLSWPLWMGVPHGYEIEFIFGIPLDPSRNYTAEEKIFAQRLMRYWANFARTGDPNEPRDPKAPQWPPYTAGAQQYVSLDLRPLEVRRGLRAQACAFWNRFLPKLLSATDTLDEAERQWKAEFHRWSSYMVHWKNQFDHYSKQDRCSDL

Cholinesterase [4] = biological target: Cholinesterase (Homo sapiens, UniProt P06276); test: Inhibition of human serum BChE using butyrylthiocholine iodide as substrate pretreated for 4.5 mins followed by substrate addition and measured after 2.5 mins by Ellman's method
Cholinesterase (Homo sapiens, UniProt P06276), sequence (P06276 whole entry): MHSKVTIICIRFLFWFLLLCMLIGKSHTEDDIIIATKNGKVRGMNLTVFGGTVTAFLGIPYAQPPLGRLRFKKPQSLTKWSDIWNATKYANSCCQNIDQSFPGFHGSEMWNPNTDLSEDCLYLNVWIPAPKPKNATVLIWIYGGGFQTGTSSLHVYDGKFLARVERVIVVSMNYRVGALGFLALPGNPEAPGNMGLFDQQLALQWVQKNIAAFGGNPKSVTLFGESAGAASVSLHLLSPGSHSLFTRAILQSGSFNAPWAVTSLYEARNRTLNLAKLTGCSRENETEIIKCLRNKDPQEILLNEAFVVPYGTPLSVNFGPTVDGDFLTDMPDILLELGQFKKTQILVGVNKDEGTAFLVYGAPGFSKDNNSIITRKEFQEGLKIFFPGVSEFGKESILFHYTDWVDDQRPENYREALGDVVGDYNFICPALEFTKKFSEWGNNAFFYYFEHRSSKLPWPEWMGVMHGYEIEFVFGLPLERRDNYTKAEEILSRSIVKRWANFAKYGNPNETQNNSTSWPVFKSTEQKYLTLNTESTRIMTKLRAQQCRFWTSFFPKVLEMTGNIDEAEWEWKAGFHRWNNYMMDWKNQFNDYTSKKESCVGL

[5] = biological target: Acetylcholinesterase (Electrophorus electricus) (UniProt O42275); test: Inhibition of electric eel AChE at 100 uM using acetylthiocholine iodide as substrate pretreated for 4.5 mins followed by substrate addition and measured after 2.5 mins by Ellman's method relative to control
Acetylcholinesterase (Electrophorus electricus), sequence (O42275 24-633 limits assumed): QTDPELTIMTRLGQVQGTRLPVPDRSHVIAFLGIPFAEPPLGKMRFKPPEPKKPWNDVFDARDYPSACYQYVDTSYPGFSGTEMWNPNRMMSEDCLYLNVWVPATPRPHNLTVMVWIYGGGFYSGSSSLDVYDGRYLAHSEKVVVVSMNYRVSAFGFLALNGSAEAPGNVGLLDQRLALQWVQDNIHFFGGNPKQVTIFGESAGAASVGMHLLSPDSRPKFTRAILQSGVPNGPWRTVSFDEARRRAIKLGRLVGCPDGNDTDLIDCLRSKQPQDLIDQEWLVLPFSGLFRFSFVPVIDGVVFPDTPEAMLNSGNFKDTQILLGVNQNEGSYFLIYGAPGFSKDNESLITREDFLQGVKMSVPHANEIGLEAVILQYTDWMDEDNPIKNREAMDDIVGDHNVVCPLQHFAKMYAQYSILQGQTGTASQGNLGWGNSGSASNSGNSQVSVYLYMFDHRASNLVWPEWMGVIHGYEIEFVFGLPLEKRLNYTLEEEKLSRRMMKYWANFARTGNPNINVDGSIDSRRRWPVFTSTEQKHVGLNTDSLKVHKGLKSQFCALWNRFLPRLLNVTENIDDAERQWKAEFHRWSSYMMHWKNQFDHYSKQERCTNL

Homo sapiens = species on record: Homo sapiens; test: Selectivity ratio of compound effect for displacement of [3H]NMS from recombinant human M2 receptor expressed in CHO cell membranes to displacement of [3H]NMS from recombinant human M1 receptor expressed in CHO cell membranes

Acetylcholinesterase (Electrophorus electricus, UniProt O42275), sequence (O42275 whole entry): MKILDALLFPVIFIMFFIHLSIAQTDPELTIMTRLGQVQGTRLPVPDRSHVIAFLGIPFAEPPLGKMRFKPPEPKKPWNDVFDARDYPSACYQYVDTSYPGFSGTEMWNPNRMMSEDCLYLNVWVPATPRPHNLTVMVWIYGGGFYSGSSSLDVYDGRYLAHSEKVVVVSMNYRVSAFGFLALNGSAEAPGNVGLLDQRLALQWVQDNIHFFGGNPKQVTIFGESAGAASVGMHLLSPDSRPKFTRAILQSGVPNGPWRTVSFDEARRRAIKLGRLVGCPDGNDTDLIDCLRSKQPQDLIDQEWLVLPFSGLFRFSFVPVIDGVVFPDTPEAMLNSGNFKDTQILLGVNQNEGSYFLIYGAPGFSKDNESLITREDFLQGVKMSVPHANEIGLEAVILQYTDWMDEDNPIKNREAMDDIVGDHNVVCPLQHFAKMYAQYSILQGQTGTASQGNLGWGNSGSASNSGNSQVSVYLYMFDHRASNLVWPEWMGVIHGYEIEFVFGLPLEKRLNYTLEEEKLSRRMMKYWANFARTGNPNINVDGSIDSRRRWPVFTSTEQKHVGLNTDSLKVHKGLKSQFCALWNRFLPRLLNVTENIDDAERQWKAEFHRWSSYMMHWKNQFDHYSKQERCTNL
Cholinesterase (Equus caballus, UniProt P81908), sequence (P81908 whole entry): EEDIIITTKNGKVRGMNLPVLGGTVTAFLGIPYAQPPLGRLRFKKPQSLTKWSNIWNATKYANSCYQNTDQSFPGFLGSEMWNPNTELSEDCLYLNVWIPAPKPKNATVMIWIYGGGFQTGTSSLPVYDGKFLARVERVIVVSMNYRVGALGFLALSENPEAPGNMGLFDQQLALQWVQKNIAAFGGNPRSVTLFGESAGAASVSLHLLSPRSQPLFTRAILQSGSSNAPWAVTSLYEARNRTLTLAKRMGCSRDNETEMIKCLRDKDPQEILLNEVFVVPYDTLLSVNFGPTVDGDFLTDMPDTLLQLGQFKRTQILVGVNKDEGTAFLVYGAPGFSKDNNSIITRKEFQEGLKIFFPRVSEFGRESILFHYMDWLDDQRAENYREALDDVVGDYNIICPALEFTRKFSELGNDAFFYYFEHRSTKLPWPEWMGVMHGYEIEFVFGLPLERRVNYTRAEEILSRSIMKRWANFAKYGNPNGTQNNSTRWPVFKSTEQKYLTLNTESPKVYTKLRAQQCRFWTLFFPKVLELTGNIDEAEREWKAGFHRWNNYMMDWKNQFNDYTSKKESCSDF

SMILES | IC50 (HepG2) | IC50 (Cholinesterase [1]) | IC50 (Acetylcholinesterase [2]) | logP (physchem) | IC50 (Acetylcholinesterase [3]) | IC50 (Cholinesterase [4]) | inhibition [5] | Selectivity ratio (Homo sapiens)
c1ccc2c(NCCCCCCCNc3c4c(nc5ccccc35)CCCC4)c3c(nc2c1)CCCC3 | < 1380 nM | 0.724 nM | 0.0331 nM |  |  |  |  | 
C[N+](C)(CC#CCOC1=NOCC1)CCCCCCCCC[N+](C)(C)CCCN1C(=O)c2ccccc2C1=O |  | 13200 nM | 15800 nM | 0.79 |  |  |  | 
C[N+](C)(CC#CCOC1=NOCC1)CCCCCCCC[N+](C)(C)CCCN1C(=O)c2ccccc2C1=O |  | 7410 nM | 12900 nM | 0.78 |  |  |  | 
C[N+](C)(CC#CCOC1=NOCC1)CCCCCCCCCC[N+](C)(C)CCCN1C(=O)c2ccccc2C1=O |  | 4270 nM | 5500 nM | 0.8 | 13200 nM | 1950 nM |  | 
C[N+](C)(CC#CCOC1=NOCC1)CCCCCCC[N+](C)(C)CCCN1C(=O)c2ccccc2C1=O |  | 6460 nM | 14800 nM | 0.79 |  |  |  | 
BrCCCCCCCNc1c2c(nc3ccccc13)CCCC2 |  | 263 nM | 0.398 nM |  |  |  |  | 
C[N+](C)(CC#CCOc1ccon1)CCCC[N+](C)(C)CCCN1C(=O)c2ccccc2C1=O |  | 85100 nM |  | 1.55 |  |  | 19.1% | 
C[N+](C)(CC#CCOC1=NOCC1)CCCCCCCCCCNc1c2c(nc3ccccc13)CCCC2 | 32200 nM | 1.78 nM | 0.155 nM | 3.28 | 1.78 nM | 1.82 nM |  | 8
c1ccc2c(CCCCCCCCCCNc3c4c(nc5ccccc35)CCCC4)c3c(nc2c1)CCCC3 | < 1250 nM | 0.457 nM | 1 nM |  |  |  |  | 
C[N+](C)(CC#CCOC1=NOCC1)CCCCCC[N+]1(C)CCC(N2C(=O)c3cccc4cccc(c34)C2=O)CC1 (configuration not stated) |  | 851 nM | 1050 nM | 1.54 |  |  |  | 
C[N+](C)(CC#CCOC1=NOCC1)CCCCCCCNc1c2c(nc3ccccc13)CCCC2 | > 160000 nM | 5.13 nM | 1.74 nM | 2.05 | 2 nM | 4.57 nM |  | 3
C[N+](C)(CC#CCOc1ccon1)CCCCCC[N+](C)(C)CCCN1C(=O)c2ccccc2C1=O |  | 38900 nM |  | 0.99 |  |  | 32.2% | 
CC(C)(CN1C(=O)c2cccc3cccc(c23)C1=O)C[N+](C)(C)CCCCCCCCC[N+](C)(C)CC#CCOC1=NOCC1 |  | 324 nM | 363 nM | 1.69 |  |  |  | 
CC(C)(CN1C(=O)c2cccc3cccc(c23)C1=O)C[N+](C)(C)CCCCCCC[N+](C)(C)CC#CCOC1=NOCC1 |  | 204 nM | 912 nM | 1.7 |  |  |  | 
CC(C)(CN1C(=O)c2cccc3cccc(c23)C1=O)C[N+](C)(C)CCCCCCCC[N+](C)(C)CC#CCOC1=NOCC1 |  | 347 nM | 794 nM | 1.61 |  |  |  | 
CC(C)(CN1C(=O)c2cccc3cccc(c23)C1=O)C[N+](C)(C)CCCCCCCCCC[N+](C)(C)CC#CCOC1=NOCC1 |  | 102 nM | 316 nM | 1.77 | 1070 nM | 263 nM |  | 
C[N+](C)(CC#CCOc1ccon1)CCCCCCCC[N+](C)(C)CCCN1C(=O)c2ccccc2C1=O |  | 7940 nM | 67600 nM | 0.83 |  |  |  | 
C[N+](C)(CC#CCOC1=NOCC1)CCCCCC[N+]1(C)CCC(N2C(=O)c3ccccc3C2=O)CC1 (configuration not stated) |  | 10700 nM | 2400 nM | 0.84 |  |  |  | 
BrCCCCCCCCCCNc1c2c(nc3ccccc13)CCCC2 |  | 8.71 nM | 0.562 nM |  |  |  |  | 

Source: ChEMBL document CHEMBL4257444, “Novel bipharmacophoric inhibitors of the cholinesterases with affinity to the muscarinic receptors M1 and M2” (Medchemcomm, 2017)
